# Assays:
# [1] = system: murine intestinal microbiota; assay: Murine fecal microbiota analysis (qRT-PCR, 16S rRNA gene) in Adnp+/− mouse model; assay type: in vivo
# Experimental: (§1) All procedures involving animals in the Adnp-mutated mouse model were approved by the Animal Care and Use Committee of Tel Aviv University and the Israeli Ministry of Health. Adnp heterozygous mice (Adnp^+/−) on an ICR background (an outbred mouse line), a model for the ADNP syndrome (Hacohen-Kleiman et al. 2018), were housed in a 12-h light/12-h dark cycle facility with free access to rodent chow and water. Genotyping was performed by Transnetyx (Memphis, Tenn.). After genotyping, the mice were housed in separate cages based on sex, genotype and treatment (up to five mice per cage), for two weeks prior to beginning of NAP treatment.
# (§2) NAP peptide was custom made as described in (Hacohen-Kleiman et al. 2018). Prior to behavioral tests, intranasal treatment was administered daily to 1-month-old male and female mice (0.5 μg/5 μl/mouse/dose). For intranasal administration, the peptide was dissolved in a vehicle solution, termed DD, in which each milliliter included 7.5 mg of NaCl, 1.7 mg of citric acid monohydrate, 3 mg of disodium phosphate dihydrate, and 0.2 mg of benzalkonium chloride solution (50%). Each mouse was handheld in a semi-supine position with nostrils facing the investigator. A pipette tip was used to administer 5 μl/two nostrils. The mouse was handheld until the solution was entirely absorbed (˜10 s). Nasal NAP application was performed daily, once a day, for 45 days (5 days a week). After 45 days of treatment, in days of scheduled behavioral tests, NAP was applied 2 h before the test.
# Fecal pellets (1-2/mice) were collected 45 days after the beginning of treatment (NAP or DD) and stored at −80° C. until DNA purification procedures. The samples were thawed on ice mixed with 400 μl of sterile PBS/sample followed by mechanical disruption of the sample using a BeadBug microtube homogenizer (Daniel Biotech, Rehovot, Israel) for 2 minutes at 4,000 rpm. A 25 μl sample of lysozyme solution (20 mg/ml) was added, and the samples were incubated with shaking for 30 min at 37° C. on a thermo shaker racking platform. Next, 20 μl proteinase K (20 mg/ml) was included and the samples were thoroughly mixed with 400 μl of sterile lysis buffer (20 mM Tris HCl, 300 mM NaCl, 400 mM EDTA and 1% SDS) and incubated with shaking for 60 min at 56° C. on a thermo shaker racking platform. Next, 300 mg sterile zirconium beads and 150 μl of phenol was added to the samples followed by homogenization (twice for 40 sec. at 4,000 rpm, Daniel biotech, Rehovot, Israel). Then, 150 μl of CI-solution (chloroform-isoamyl alcohol 24:1) was added, mixed and submitted for centrifugation 13,000 rpm at room temperature for 5 minutes, Eppendorf Centrifuge 5417R (Eppendorf, Hamburg, Germany). A 600 μl volume of supernatant was removed and placed in a sterile 2 mL Eppendorf tube. 150 μl of CI-solution was then included and the samples were subjected to centrifugation as above. A 400 μl of aqueous, clear top phase was removed and placed in a sterile 2 mL Eppendorf tube. Then, the 400 μl of DNA solution was mixed with 100 μl of precipitation solution (40 mM EDTA 1.2M sodium acetate and 4 mg/ml glycogen). 1.3 mL of ice-cold 100% ethanol was added, the samples were then mixed and stored over night at −20° C. for DNA precipitation followed by centrifugation (13,000 rpm) at 4° C. The supernatant was discarded and the pellet washed with 500 μl ice-cold 70% ethanol followed by centrifugation for 5 minutes at 13,000 rpm, 4° C. (this step was repeated twice). The pellet was dried in the Speed Vac (Eppendorf Concentrator 5301) for 15 minutes and then re-suspended in 100 μl sterile water. Next, the samples were mixed on the shaker for 10 minutes at room temperature. In the next step, the samples were further purified using Qiagen Purification Kit according to the manufacturer's instructions ([…], Hilden, Germany). DNA was eluted in 100 μl sterile water and stored at −20° C. for long storage. […]
# [2] = system: Adnp+/− mice; assay: Open field behavior of Adnp+/− mice; assay type: in vivo, mouse
# Experimental: as §1, §2
# The test provides a unique opportunity to systematically assess novel environment exploration, general locomotor activity, and anxiety-related behavior in rodents. […] The distance moved and time spent in the entire open field, as well as in its inner defined quadrants (center, border) was recorded using the EthoVision XT video tracking system and software (Noldus Inc. Leesburg, VA). […]
# [3] = Body weight of Adnp+/− mice; assay type: in vivo, mouse; conditions: male Adnp+/− cohort, NAP treatment
# Experimental: as §1
# as §2, with “Nasal NAP application was performed daily, once a day, for 45 days (5 days a week). After 45 days of treatment, in days of scheduled behavioral tests, NAP was applied 2 h before the test.” left out
# [4] = system: Adnp p.Tyr718* mice; assay: Visual evoked potential in CRISPR/Cas9 Adnp p.Tyr718* mice; assay type: in vivo, mouse; conditions: Adnp p.Tyr718* mice (discovered in males), NAP treatment
# Source text: We have developed another Adnp mutated mouse model using CRISP/Cas9 technology. The mice carry the most prevalent ADNP syndrome mutation (e.g. Adnp p.Tyr718* in the mouse corresponding to ADNP pTyr719* in the human). […] Monitoring visual evoked potential provides an objective observation of aberrant ADNP activity on one hand and its correction by treatment, e.g. by NAP peptide on another hand. Given the results in Example 1, gut microbiota samples are now being analyzed and are correlated also to visual evoked potential responses of males and females, coupling biomarkers for better diagnostics and clinical monitoring. The following bacteria in gut microbiota are tested and correlated with changes in visual evoked potential in subjects having aberrant ADNP activity: Bifidobacterium, Clostridium, Bacteroides, Faecalibacterium, Eubacterium, Ruminococcus, Peptococcus, Peptostreptococcus, Parabacteroides, Escherichia coli, Verrucomicrobia, Lactobacillus, Clostridium coccoides group, Mouse Intestinal Bacteroides (MIB) Enterococcus genus (gEncocc) and Clostridium Cluster IV (sgClep).
# [5] = system: Adnp+/− mice; conditions: exogenous administration of NAP; cited from earlier work
# [6] = system: human microbiota-harboring mice suffering from subacute ileitis; conditions: gut inflammation model; cited from earlier work
# [7] = female Adnp+/− mice, fecal samples, intranasal NAP 0.5 μg/mouse daily, 45 days
# [8] = females, genotype and NAP treatment effect
# [9] = male Adnp+/− mice, fecal samples, intranasal NAP 0.5 μg/mouse daily, 45 days
# [10] = males, genotype and NAP treatment effect
sequence,measurement,setting,value
NAPVSIPQ,Changes in microbiota (overall effect of NAP treatment),[1]; Adnp deficient mice,partially reverses
same,Total Eubacterial loads,"[1]; female Adnp+/+ mice, fecal samples, NAP treated (data not shown)",essentially lower total Eubacterial loads
same,Trending genotype increases in microbiota groups corrected by NAP treatment,[1]; female Adnp+/− mice,significantly corrected two trending genotype increases
same,Clostridium coccoides group (Coer) abundance,[1]; [7],significant NAP-dependent decreases
same,Enterococcus genus (gEncocc) numbers,[1]; [7],lower fecal Enterococcus genus (gEncocc) numbers
same,Bacteroides/Prevotella spp (Bac) abundance,[1]; [8],neither affected by genotype nor by NAP treatment
same,Bifidobacterium genus (BIF) abundance,[1]; [8],neither affected by genotype nor by NAP treatment
same,Enterobacteriaceae (Entero) abundance,[1]; [8],neither affected by genotype nor by NAP treatment
same,Eubacteriaceae (EubV3) abundance,[1]; [8],neither affected by genotype nor by NAP treatment
same,Mouse Intestinal Bacteroides (MIB) abundance,[1]; [8],neither affected by genotype nor by NAP treatment
same,Clostridium coccoides group (Coer) intestinal numbers,"[1]; male Adnp+/+ controls, NAP treated compared to placebo treated (data not shown)",higher intestinal numbers
same,Genotype affected microbiota groups whose deficit was reversed by NAP treatment,[1]; male Adnp+/− mice,four out of five
same,Bifidobacterium genus (BIF) abundance,[1]; [9],decreased to control levels
same,Clostridium coccoides group (Coer) abundance,[1]; [9],except for Clostridium coccoides group (Coer) decreased to control levels
same,Lactobacillus group (Lacto) abundance,[1]; [9],decreased to control levels
same,Mouse Intestinal Bacteroides (MIB) abundance,[1]; [9],decreased to control levels
same,Total Eubacterial loads (EubV3),[1]; [9],decreased to control levels
same,Bacteroides/Prevotella spp (Bac) abundance,[1]; [10],neither affected by genotype nor by NAP treatment
same,Clostridium Cluster IV (sgClep) abundance,[1]; [10],neither affected by genotype nor by NAP treatment
same,Enterobacteriaceae (Entero) abundance,[1]; [10],neither affected by genotype nor by NAP treatment
same,Enterococcus genus (gEncocc) abundance,[1]; [10],neither affected by genotype nor by NAP treatment
same,Behavioral changes (overall effect of NAP treatment),[2]; Adnp deficient mice,partially reverses
same,Time spent in the center area (open field),"[2]; Adnp+/+, Adnp+/− and NAP treated Adnp+/− mice, FIG. 3B",did not reveal significant changes
same,Frequency entrance to the center area (open field),"[2]; untreated male Adnp+/− mice vs Adnp+/+ (p<0.01) and vs NAP treated Adnp+/− mice (p<0.05), FIG. 3A",significantly higher frequency entrance in to the center area compared to Adnp^+/+ mice and NAP treated Adnp^+/− mice
same,Body weight,[3],increased weight
same,Aberrant visual evoked potential patterns,[4],rapidly corrected
same,Behavioral and developmental defects,[5],at least partially reverse behavioral and developmental defects
same,Anti-inflammatory effects,[6],anti-inflammatory NAP effects were observed

# From patent US20220340955A1, “METHODS FOR DIAGNOSING AND TREATMENT MONITORING OF ADNP-DEFICIENT PATIENTS” (RAMOT AT TEL-AVIV UNIVERSITY LTD., priority 2019, published 2022)
